Consider 10 compounds from patent US10519177B2, “Heterocyclic compounds and uses thereof” (Plexxikon Inc., priority 2013, dated 2019).

For one assay, the system named is bromodomain. Put plainly: at least one of the bromodomain cell assays of Example 57. Type of assay: cell-based. The following applies: at least one of the bromodomain cell assays described in Example 57; read-out: IC50 in at least one of the bromodomain cell assays.
The subject of the next assay is MV-4-11 cells. Put plainly: Oncology cell growth assay MV-4-11 (CellTiter Glo). It counts as cell-based. The following applies: Homo sapiens, MV4-11, 72 h; MV-4-11, 3d growth; read-out: Cell activity (IC50 μM) MV-4-11 3d-Growth. The method in brief: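 Growth read by CellTiter Glo luminescence after 72 h compound treatment of MLL-AF4-bearing MV-4-11 cells (3000/well). Titration: 8 points, 1:3 steps, maximum 10 μM, 0.2% DMSO final. Data normalized to DMSO wells, four-parameter fit gives pIC50.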

The target in another assay is BRD4-BD12 (1-477) (Homo sapiens (Human), UniProt O60885). As to the kind of experiment: Alphascreen binding assay BRD4-BD12. The following applies: BRD4(1 2) H4; read-out: Biochemical activity (IC50 μM) BRD4(1 2) H4. The gist of the method:
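In this competition format, compounds displace a biotinylated tetra-acetyl H4 peptide from E. coli-expressed human BRD4 bromodomain constructs captured on nickel chelate beads. The reaction runs at pH 7.5 with 2 mM DTT and detergent for 1 h at room temperature before a 30 min bead step.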

As for `Cc1noc(C)c1-c1cnc2c(-c3ccc(C#N)cc3)cn(C(c3ccccn3)c3ccccn3)c2c1` [P-0592, 4-[1-[bis(2-pyridyl)methyl]-6-(3,5-dimethylisoxazol-4-yl)pyrrolo[3,2-b]pyridin-3-yl]benzonitrile], the IC50 was < 10000 nM in the assay with bromodomain, < 1 µM in the assay with MV-4-11 cells and < 1 µM on BRD4-BD12 (1-477).

`Cc1noc(C)c1-c1cnc2c(-c3cnn(C)c3)cn(C(c3ccccn3)c3ccccn3)c2c1` [P-0593, 4-[1-[bis(2-pyridyl)methyl]-3-(1-methylpyrazol-4-yl)pyrrolo[3,2-b]pyridin-6-yl]-3,5-dimethyl-isoxazole]: the IC50 in the assay with bromodomain was < 10000 nM; in the assay with MV-4-11 cells, < 1 µM; at BRD4-BD12 (1-477) it was < 1 µM.

As to `Cc1noc(C)c1-c1cnc2c(-c3ccc(C#N)nc3)cn(CC3CCC(F)(F)CC3)c2c1` [P-0594, 5-[1-[(4,4-difluorocyclohexyl)methyl]-6-(3,5-dimethylisoxazol-4-yl)pyrrolo[3,2-b]pyridin-3-yl]pyridine-2-carbonitrile], the IC50 is < 10000 nM with bromodomain, < 1 µM with MV-4-11 cells and < 1 µM on BRD4-BD12 (1-477).

For the compound `Cc1noc(C)c1-c1cnc2c(-c3ccc(C#N)nc3)cn([C@@H](C)c3ccccn3)c2c1` [P-0595, 5-[6-(3,5-dimethylisoxazol-4-yl)-1-[(1S)-1-(2-pyridyl)ethyl]pyrrolo[3,2-b]pyridin-3-yl]pyridine-2-carbonitrile], the figures for the IC50 in the assay on bromodomain, with MV-4-11 cells and on BRD4-BD12 (1-477) were < 10000 nM, < 1 µM and < 1 µM, respectively.

Regarding `Cc1noc(C)c1-c1cnc2c(-c3ccc(B(O)O)cc3)cn(CC3CCC(F)(F)CC3)c2c1` [P-0596, [4-[1-[(4,4-difluorocyclohexyl)methyl]-6-(3,5-dimethylisoxazol-4-yl)pyrrolo[3,2-b]pyridin-3-yl]phenyl]boronic acid], the values for the IC50 with bromodomain, in the assay on MV-4-11 cells and on BRD4-BD12 (1-477) were < 10000 nM, < 1 µM and < 1 µM, respectively.

Take `Cc1noc(C)c1-c1cnc2c(-c3ccc(C#N)nc3)cn(C(c3ccccn3)c3ccccn3)c2c1` [P-0597, 5-[1-[bis(2-pyridyl)methyl]-6-(3,5-dimethylisoxazol-4-yl)pyrrolo[3,2-b]pyridin-3-yl]pyridine-2-carbonitrile]: the IC50 was < 10000 nM in the assay on bromodomain, < 1 µM in the assay with MV-4-11 cells and < 1 µM on BRD4-BD12 (1-477).

`Cc1noc(C)c1-c1cnc2c(-c3ccc([N+](=O)[O-])cc3)cn(CC3CCC(F)(F)CC3)c2c1` [P-0598, 4-[1-[(4,4-difluorocyclohexyl)methyl]-3-(4-nitrophenyl)pyrrolo[3,2-b]pyridin-6-yl]-3,5-dimethyl-isoxazole]: the values for the IC50 in the assay on bromodomain, in the assay on MV-4-11 cells and on BRD4-BD12 (1-477) were < 10000 nM, < 1 µM and < 1 µM, respectively.

With `Cc1noc(C)c1-c1cnc2c(-c3ccc([N+](=O)[O-])nc3)cn(CC3CCC(F)(F)CC3)c2c1` [P-0599, 4-[1-[(4,4-difluorocyclohexyl)methyl]-3-(6-nitro-3-pyridyl)pyrrolo[3,2-b]pyridin-6-yl]-3,5-dimethyl-isoxazole], the values for the IC50 in the assay with bromodomain, in the assay with MV-4-11 cells and at BRD4-BD12 (1-477) were < 10000 nM, < 1 µM and < 1 µM, respectively.

As to `Cc1noc(C)c1-c1cnc2c(-c3ccc(C=O)cc3)cn(CC3CCC(F)(F)CC3)c2c1` [P-0600, 4-[1-[(4,4-difluorocyclohexyl)methyl]-6-(3,5-dimethylisoxazol-4-yl)pyrrolo[3,2-b]pyridin-3-yl]benzaldehyde], the IC50 in the assay on bromodomain is < 10000 nM; in the assay on MV-4-11 cells it was < 1 µM; on BRD4-BD12 (1-477), < 1 µM.

For `Cc1noc(C)c1-c1cnc2c(-c3ccc(CO)cc3)cn(CC3CCC(F)(F)CC3)c2c1` [P-0601, [4-[1-[(4,4-difluorocyclohexyl)methyl]-6-(3,5-dimethylisoxazol-4-yl)pyrrolo[3,2-b]pyridin-3-yl]phenyl]methanol], the IC50 was < 10000 nM in the assay with bromodomain, < 1 µM in the assay on MV-4-11 cells and < 1 µM on BRD4-BD12 (1-477).
